Here are results for 2 compounds from patent publication US11992497B2 (priority 2021, dated 2024).

Molecules are shown by their SMILES.

This experiment deals with indomethacin induced intestinal injury. The experiment is described as follows: Indomethacin-induced Crohn's disease in rats. Format: in vivo. As to conditions: for small intestine weight compared to vehicle: all three treatment groups (50, 200, 800 mg/kg PO, days 0-3); for body weight change (prevention of weight loss): all treatment groups (50, 200, 800 mg/kg PO, days 0-3), vs dexamethasone (Compound 2: also vehicle). The protocol: The objective of this study was to determine the efficacy of Compound 1 and Compound 2 in a model of Crohn's disease (indomethacin induced intestinal injury) in rats.
The study design was identical for Compound 1 and Compound 2. On study day −3, rats were weighed and distributed into treatment groups based on body weight.
On study day 0, treatment was initiated and continue as indicated in the Study Design Tables below. Groups 2-6 received a subcutaneous injection of indomethacin (9 mg/kg, 1 ml/kg) in 5% sodium bicarbonate (Sterile Water). On study day 1, Groups 2-6 received a second subcutaneous injection of indomethacin (8 mg/kg, 1 ml/kg) in 5% sodium bicarbonate (Sterile Water). Live phase sample & data collection specifics are outlined below. On study day 4, animals will be euthanized, a section of the small intestine will be removed and weighed. Further necropsy sample and data collection is specified below. Overall efficacy of test articles will be based on body weight, small intestine weight (10 cm), small intestine gross score, and histopathology
At necropsy, the small intestines were evaluated visually and given a gross score according to the following criteria: ⋅0=Normal. 0.5=Very Minimal thickening, multifocal in area at risk. 1=Minimal thickening, fairly diffuse in area at risk. 2=Mild to moderate small intestinal/mesenteric thickening throughout area at risk. 3=Moderate thickening with 1 or more definite adhesions that would be easy to separate. 4=Marked thickening with numerous hard to separate adhesions. 5=Severe intestinal lesion resulting in death.
Preserved 9-cm sections of small intestine were trimmed into 6 transverse sections collected at approximately equal intervals along the […] of the intestine, without bias toward lesion presence or absence. These trimmed sections were processed through graded alcohols and a clearing agent, infiltrated and embedded in paraffin, sectioned, and stained with hematoxylin and eosin (H&E).
Small intestine sections from all animals were examined microscopically by a board-certified veterinary pathologist, and observations were entered into a computer-assisted data retrieval system. Cross sections of small intestine were scored for inflammation and necrosis using the following criteria:
The area at risk for development of this lesion is generally approximately 30% of the total area of a cross section of small intestine where the mesentery attaches.
Inflammation is localized to the mesentery and intestinal area at risk for necrosis with slight extension on either side of it. […] In this case, inflammation is scored based on overall severity ranging from 0.5 (very minimal) to 5 (severe) without regard for the extent of necrosis. The mean score for necrosis and inflammation was calculated for each animal and these mean scores were then summed to arrive at a total score. Each section also has a measurement of total width of mucosal necrosis.

The mark [1] stands for this setting: Compound 1 Group 5 (200 mg/kg PO).
Where [2] appears, read: Compound 1 Groups 4 and 5 (50, 200 mg/kg PO).

Turning to `CCCCCc1cc(O)c(C/C=C(\C)CCC=C(C)C)c(OC)c1` [Compound 1, (E)-2-(3,7-dimethylocta-2,6-dien-1-yl)-3-methoxy-5-pentylphenol], the “small intestine weight compared to vehicle” value is reported as “significantly lower” and the “body weight change (prevention of weight loss)” value is listed as “trended towards or had significant differences in preventing weight loss”. Moreover, under setting [1], the “histopathology scores vs vehicle and dexamethasone” value was “significantly lower”; the “necrosis width vs vehicle and dexamethasone” value is listed as “significantly lower”. For the same compound, under setting [2], the “Histopathology scores vs vehicle and positive control” value is “trended lower”; the “necrosis width vs vehicle and positive control” value is reported as “trended lower”. Besides, under “Group 4 (50 mg/kg PO)”, the “small intestine gross score compared to vehicle” value was “trend in lower small intestine gross score”. The “small intestine gross score compared to vehicle” value (Groups 5-6 (200, 800 mg/kg PO)) is reported as “significant reductions”.

Turning to `CCCCCc1cc(OC)c(C/C=C(\C)CCC=C(C)C)c(OC)c1` [Compound 2, (E)-2-(3,7-dimethylocta-2,6-dien-1-yl)-1,3-dimethoxy-5-pentylbenzene], the “small intestine weight compared to vehicle” value is “significantly lower” and the “body weight change (prevention of weight loss)” value is “trended towards or had significant differences in preventing weight loss”. Under “Compound 2 Group 5”, the “reduction of necrosis width, of vehicle” value was 99%. Besides, for the setting “Compound 2 Group 5 & 6”, the “histopathology scores vs vehicle and dexamethasone” value is reported as “significantly lower”; the “necrosis width vs vehicle and dexamethasone” value is reported as “significantly lower”. The “reduction of necrosis width, of vehicle” value (Compound 2 Group 6) worked out at 96%. In addition, under “Compound 2 Groups 4-6”, the “Histopathology scores vs vehicle” value was “lower than the vehicle” and the “necrosis width vs vehicle” value was “lower than the vehicle”. Besides, under “Group 4 (50 mg/kg PO)”, the “small intestine gross score compared to vehicle” value is given as “trend in lower small intestine gross score”. Under “Groups 5-6 (200, 800 mg/kg PO)”, the “small intestine gross score compared to vehicle” value was “significant reductions”.
